Consider 16 compounds from patent US7223755B2, “Hydroxymorpholinone derivative and medicinal use thereof” (Senju Pharmaceutical Co., Ltd., priority 2002, dated 2007).

Data set [1] has as its system T1, μ-calpain (derived from human erythrocyte).
T1 construct: μ-calpain (derived from human erythrocyte, manufactured by Cosmo Bio Co., Ltd.); purchased Cosmo Bio Co., Ltd; host or cells: human erythrocyte (natural source)
Put plainly: μ-calpain inhibitory activity (casein substrate, Coomassie brilliant blue). Format: biochemical. To be noted: 0.5 mg/mL casein, 30° C. for 60 min; read-out: 50% enzyme inhibitory concentration [IC50 (μM)] μ-calpain. How it is done:
The μ-calpain and m-calpain inhibitory activities were determined according to the method described in a reference [Anal. Biochem. vol. 208, 387-392 (1993)]. To be specific, a reaction mixture (200 μL) containing 0.5 mg/mL casein, 50 mM Tris-HCl buffer (pH 7.4), 20 mM dithiothreitol and 0.03 enzyme unit of μ-calpain (derived from human erythrocyte, manufactured by Cosmo Bio Co., Ltd.) or m-calpain (derived from pig kidney, manufactured by Cosmo Bio Co., Ltd.), dimethyl sulfoxide solution (2.5 μL) containing various concentrations of a test drug and 20 mM aqueous calcium chloride solution (50 μL) were added to a 96 well plate. After reaction at 30° C. for 60 min, the reaction mixture (100 μL) was transferred to a different 96 well plate, and purified water (50 μL) and 50% Coomassie brilliant blue solution (100 μL) were added. The plate was left standing at room temperature for 15 min and absorbance at 595 nm was measured. Using a value, measured after treating in the same manner without a test drug, as a control and a value, obtained by adding 1 mM EDTA instead of 20 mM aqueous calcium chloride solution, as a blank value, an inhibitory rate was calculated from the following formula and the amount (IC50) necessary for 50% inhibition was determined. Inhibitory rate (%)={1−(measured value−blank value)/(control value−blank value)}×100 Test Results 1

As to `CC(C)C[C@@H]1OC(O)[C@H](COCc2ccccc2)NC1=O` (stereo partly drawn) [Compound 14, (2S,5S)-5-benzyloxymethyl-6-hydroxy-2-(2-methylpropyl)-3-morpholinone], the IC50 in data set [1] came out at 0.82 µM. The same measure, in the same setting: under `COc1ccc(C[C@@H]2NC(=O)[C@H](CC(C)C)OC2O)cc1` (stereo partly drawn) [Compound 9, (2S,5S)-6-hydroxy-5-((4-methoxyphenyl)methyl)-2-(2-methylpropyl)-3-morpholinone] stands 0.68 µM.

On to `CC(C)C[C@@H]1OC(O)[C@H](Cc2ccc(O)cc2)NC1=O` (stereo partly drawn) [Compound 8, (2S,5S)-6-hydroxy-5-((4-hydroxyphenyl)methyl)-2-(2-methylpropyl)-3-morpholinone], for which the IC50 in data set [1] came to 2.5 µM. The term melting point denotes the temperature of the solid-liquid transition. For `CC(C)C[C@@H]1OC(O)[C@H](Cc2ccccc2F)NC1=O` (stereo partly drawn) [Compound 12, (2S,5S)-5-((2-fluorophenyl)methyl)-6-hydroxy-2-(2-methylpropyl)-3-morpholinone], the melting point fell in the range of 83.9 to 87.9 °C. Besides, the IC50 in data set [1] came to 2.1 µM. The compound `CC(C)C[C@@H]1OC(O)[C@H](Cc2ccc3ccccc3c2)NC1=O` (stereo partly drawn) [Compound 3, (2S,5S)-6-hydroxy-2-(2-methylpropyl)-5-(2-naphthylmethyl)-3-morpholinone] gave a melting point of 86.5 to 88.5 °C. Besides, in data set [1], the IC50 was 0.49 µM. As for `CC(C)C[C@@H]1OC(O)[C@H](Cc2ccccc2)NC1=O` (stereo partly drawn) [Compound 1, (2S,5S)-5-benzyl-6-hydroxy-2-(2-methylpropyl)-3-morpholinone], the IC50 in data set [1] amounted to 0.7 µM. The same measure, in the same setting: for `CC(C)C[C@@H]1OC(O)[C@H](Cc2ccccc2Cl)NC1=O` (stereo partly drawn) [Compound 13, (2S,5S)-5-((2-chlorophenyl)methyl)-6-hydroxy-2-(2-methylpropyl)-3-morpholinone] the value was 0.93 µM. Turning to `CC(C)C[C@@H]1OC(O)[C@@H](Cc2ccccc2)NC1=O` (stereo partly drawn) [Compound 4, (2S,5R)-5-benzyl-6-hydroxy-2-(2-methylpropyl)-3-morpholinone], the melting point was in the range of 130.9 to 131.8 °C. For the same compound, the IC50 in data set [1] is 5.9 µM. Compound `CC(C)C[C@@H]1OC(O)[C@H](CCc2ccccc2)NC1=O` (stereo partly drawn) [Compound 2, (2S,5S)-6-hydroxy-2-(2-methylpropyl)-5-(2-phenylethyl)-3-morpholinone] showed a melting point of 94.1 to 95.8 °C. For the same compound, the IC50 in data set [1] came out at 0.51 µM.

In the case of `CC(C)C[C@@H]1OC(O)[C@H](Cc2ccc(OCC3CCCCC3)cc2)NC1=O` (stereo partly drawn) [Compound 11, (2S,5S)-5-((4-(cyclohexylmethoxy)phenyl)methyl)-6-hydroxy-2-(2-methylpropyl)-3-morpholinone], the IC50 in data set [1] was determined as 0.45 µM. Take `CC(C)C[C@@H]1OC(O)[C@H](CCCCNC(=O)c2ccccc2)NC1=O` (stereo partly drawn) [Compound 16, (2S,5S)-5-(4-(benzoylamino)butyl)-6-hydroxy-2-(2-methylpropyl)-3-morpholinone]: the melting point is 128.4 to 129 °C. The IC50 in data set [1] turned out to be 1.1 µM. The like results for `O=C1N[C@@H](Cc2ccccc2)C(O)O[C@H]1Cc1ccccc1` (stereo partly drawn) [Compound 7, (2S,5S)-2,5-dibenzyl-6-hydroxy-3-morpholinone] were, in that order, 165.5 to 166 °C and 17 µM.

For `CC(C)[C@@H]1OC(O)[C@H](CCc2ccccc2)NC1=O` (stereo partly drawn) [Compound 6, (2S,5S)-6-hydroxy-2-(1-methylethyl)-5-(2-phenylethyl)-3-morpholinone], the IC50 in data set [1] was determined as 3.5 µM. On the same count and under the same terms, under `CCCCOc1ccc(C[C@@H]2NC(=O)[C@H](CC(C)C)OC2O)cc1` (stereo partly drawn) [Compound 10, (2S,5S)-5-((4-butoxyphenyl)methyl)-6-hydroxy-2-(2-methylpropyl)-3-morpholinone] stands 0.52 µM; under “(2S,5S)-5-((4-biphenyl)methyl)-6-hydroxy-2-(2-methylpropyl)-3-morpholinone [Compound 15]”, 0.25 µM.

For `CC(C)[C@@H]1OC(O)[C@H](Cc2ccccc2)NC1=O` (stereo partly drawn) [Compound 5, (2S,5S)-5-benzyl-6-hydroxy-2-(1-methylethyl)-3-morpholinone], in data set [1], the IC50 stood at 2.3 µM.
